# Laboratory results published in patent US4916068A, “Bioconversion production of ascorbic acid with L-galactono-1,4-oxidase” (Kraft, Inc., priority 1984, dated 1990).
# B1: L-galactono-1,4-lactone oxidase (Saccharomyces cerevisiae S288C) (protein)
# chain: MSTIPFRKNYVFKNWAGIYSAKPERYFQPSSIDEVVELVKSARLAEKSLVTVGSGHSPSNMCVTDEWLVNLDRLDKVQKFVEYPELHYADVTVDAGMRLYQLNEFLGAKGYSIQNLGSISEQSVAGIISTGSHGSSPYHGLISSQYVNLTIVNGKGELKFLDAENDPEVFKAALLSVGKIGIIVSATIRVVPGFNIKSTQEVITFENLLKQWDTLWTSSEFIRVWWYPYTRKCVLWRGNKTTDAQNGPAKSWWGTKLGRFFYETLLWISTKIYAPLTPFVEKFVFNRQYGKLEKSSTGDVNVTDSISGFNMDCLFSQFVDEWGCPMDNGLEVLRSLDHSIAQAAINKEFYVHVPMEVRCSNTTLPSEPLDTSKRTNTSPGPVYGNVCRPFLDNTPSHCRFAPLENVTNSQLTLYINATIYRPFGCNTPIHKWFTLFENTMMVAGGKPHWAKNFLGSTTLAAGPVKKDTDYDDFEMRGMALKVEEWYGEDLKKFRKIRKEQDPDNVFLANKQWAIINGIIDPSELSD
# notes: The pellet (mitochondria) was saved and resuspended in 250 ml; endogenous in cells; host or cells: mitochondria of Red Star baker's yeast (Saccharomyces cerevisiae)
# How the values were obtained:
# preferred yeast strains = assay: utilization of galactose derivatives for L-ascorbic acid formation; format: cell-based; conditions: compared with L-galactono-gamma-lactone
# Description: The D-galactose 18 is converted by catalytic oxidation to provide D-galacturonic acid 22. Processes to carry out this oxidative step for D-sugar acids are well known in the art and have been described in U.S. Pat. No. 2,265,121 by T. Reichstein. A variety of catalytic agents, e.g., platinum or palladium catalysts may be employed to convert blocked D-galactose (acetone) to the D-galacturonic acid product. The unblocked D-galacturonic acid may then be reduced by an appropriate reduction step such as reduction with gaseous hydrogen in the presence of a suitable hydrogenation catalyst such as Raney nickel, or palladium, to produce L-galactonic acid 24. Processes to carry out this chemical reduction are well known in the art such as described by H. Isbell, J. Res. Nat. Bur. Stds., 33, 45-60 (1944). Removal of water by distillation and condensation of the desalted L-sugar acid induces the formation of L-galactono-gamma-lactone 26 which is utilized in the microbiological conversion process of the present invention to form L-ascorbic acid. […] Keto-derivatives such as 5-Keto-L-Galactonic acid, are not utilized by the preferred yeast strains particularly described herein. The L-galactono-gamma-lactone 26, ethanol 16, and suitable organic and inorganic nutrients are combined to provide a fermentation medium 28 for a selected L-ascorbic acid overproducer.
# Candida norvegensis = assay: Assimilation tests (identification of the yeast); format: cell-based; conditions: C. norvegensis MF-56, MF-78 and parent CBS 2145
# Description: The morphological, cultural and physiological characteristics of the mutant strain C. norvegensis Kraft, Inc. MF-56 ATCC 20686, the mutant strain C. norvegensis Kraft, Inc. MF-78 ATCC 20732, and the parent strain C. norvegensis CBS 2145 are consistent with the yeast description provided in The Yeasts, a taxononomic study (J. Lodder (Ed.) 1970, North Holland Publishing Co., Amsterdam) and A New Key to the Yeasts (J. A. Barnett & R. J. Parkhurst (Ed) 1974, North Holland Publishing Co., Amsterdam).
# [1] = tested on: Candida norvegensis CBS 1911; assay: aerobic bioconversion run with ethanol carbon source; format: cell-based; conditions: 48 hours; for Other redox Compounds / Total Ascorbate / L-Ascorbate: 0.5% substrate; for L-Ascorbate: HPLC with electrochemical detection; for Optical Density: SMl + 1.5% ethanol + 0.5% substrate, 30° C.
# Protocol: (§1) Two yeast strains, Candida norvegensis CBS 1911 and Candida utilus NRRL Y-900 are utilized with an ethanol carbon source in separate bioconversion runs with each of two different substrates, L-galactono-1,4-lactone or D-galacturonic acid-methyl ester. The bioconversion runs are carried out under aerobic conditions in a 500 milliliter low actinic flask containing 50 ml of the biconversion medium. The bioconversions were carried out at a temperature of 30° C. for 48 hours with agitation provided by a skaker operating at 200 rpm. The medium for the C. norvegensis runs was the SMl medium previously described plus 1.5% ethanol plus 0.5% substrate. The medium for the C. utilus runs were SMl plus 1.5% ethanol plus 0.2% substrate.
# [2] = tested on: Candida utilus NRRL Y-900; assay: as above; format: cell-based; conditions: 48 hours; for Other redox Compounds / Total Ascorbate / L-Ascorbate: 0.2% substrate; for L-Ascorbate: HPLC with electrochemical detection; for Optical Density: SMl + 1.5% ethanol + 0.2% substrate, 30° C.
# Protocol: as §1
# [3] = tested on: L-Galactono-1,4-Lactone Oxidase; assay: L-galactono-1,4-lactone oxidase activity, comparison of yeast strains; format: biochemical; conditions: C. norvegensis (CBS 1911)
# Protocol: An assay mixture is provided which contains 2mM L-galactono-1,4-lactone and 50 mM Na-Citrate pH 6.8 in a total volume of 3 ml. The mixture is incubated at 37° C. in a shaker bath for up to 30 minutes. The reaction is stopped by adding 0.3 ml of 50% TCA. The precipitated protein is removed by centrifugation and the supernatant is assayed for L-ascorbate by high performance liquid chromatography analysis with electrochemical detection and by 2,6,dichloroindophenol titration.
# A series of 5 detergents: (1) nonylphenol POE-9 (NP-9), (2) polydet (P-40), (3) octylglucoside, (4) (3-[3-cholamindopropyl)-dimethylammonio]1-propane sulfonate (CHAPS), and (5) (3-[3-cholamindopropyl)-dimethyl ammonio]-2-hydroxy-1-propane sulfonate).2H2 O (CHAPSO) were tested. […] Biochem. & Biophys., 191, 47a (1978)].
# [4] = substrate: O=C1O[C@H]([C@@H](O)CO)[C@@H](O)[C@@H]1O; assay: mitochondrial assay for L-galactono-1,4-lactone oxidase activity; format: biochemical, Saccharomyces Cerevisiae; conditions: other: intact mitochondrial system, substrate 0.1 mM to 50 mM; 37.0 °C
# Description: Two pounds of Red Star baker's yeast (Saccharomyces Cerevisiae), which is not overproductive in L-Ascorbic acid were disrupted according to the method of Tzagoloff [J. Biol. Chem., 244, 5020 (1969)]. The frozen powder (900 gm) was transferred to 1.51 of a solution consisting of 0.4 M sucrose, 0.05 M Tris(hydroxymethyl) amino methane (Tris-HCl) pH 8.2, with one millimolar ethylene diamine tetracetic acid (EDTA). The pH of the suspension was adjusted to 7.5 with sodium hydroxide and the suspension was subsequently homogenized in a blender for 45 seconds. The homogenate was centrifuged at 2500×g for 15 minutes at 4° C. and the cell debris was discarded. The supernatant was centrifuged at 62000×g in a Shar-les centrifuge. The pellet (mitochondria) was saved and resuspended in 250 ml of a solution containing 0.25 M sucrose and 0.01 M Tris-HCl pH 7.5 and frozen.
# An assay mixture is provided which contains 2mM L-galactono-1,4-lactone and 50 mM Na-Citrate pH 6.8 in a total volume of 3 ml. The mixture is incubated at 37° C. in a shaker bath for up to 30 minutes. The reaction is stopped by adding 0.3 ml of 50% TCA. […]
# The specific activity of this sample was calculated to be 2.5 ×10^-3 micromoles/min/mg protein. […]
molecule,measurement,setting,value
O=C(O)[C@@H](O)[C@H](O)[C@H](O)C(=O)CO [5-Keto-L-Galactonic acid],utilization as substrate for L-ascorbic acid,preferred yeast strains,not utilized
O=C[C@H](O)[C@@H](O)[C@H](O)CO [D-Xylose],Assimilation of carbon compounds,Candida norvegensis,+ latent or
COC(=O)[C@@H](O)[C@H](O)[C@H](O)[C@@H](O)C=O [D-galacturonic acid-methyl ester],Other redox Compounds,[1],17.5 µg/mL
same,Total Ascorbate,[1],473 ug/100 ml
same,L-Ascorbate,[1],3.5 µg/mL
same,Optical Density,[1],2.60
same,Other redox Compounds,[2],1.3 µg/mL
same,Total Ascorbate,[2],"4,383 ug/100 ml"
same,L-Ascorbate,[2],12.0 µg/mL
same,Optical Density,[2],8.50
O=[N+]([O-])[O-].[K+] [KNO3],Assimilation of KNO3,Candida norvegensis,negative
O=C(O)[C@@H](O)[C@H](O)[C@H](O)[C@@H](O)CO [L-galactonic acid],utilization as substrate for L-ascorbic acid,preferred yeast strains,yields of L-ascorbic acid are reduced
"O=C1O[C@H]([C@@H](O)CO)[C@@H](O)[C@@H]1O [L-galactono-1,4-lactone]",Km,[3],1.3 mM
same,Other redox Compounds,[1],10.1 µg/mL
same,Total Ascorbate,[1],"10,625 ug/100 ml"
same,L-Ascorbate,[1],92.8 µg/mL
same,Optical Density,[1],2.05
same,Other redox Compounds,[2],1.8 µg/mL
same,Total Ascorbate,[2],"15,905 ug/100 ml"
same,L-Ascorbate,[2],50.0 µg/mL
same,Optical Density,[2],8.50
B1,Km,[4],1.6 mM
same,Vmax,[4],0.34 µmol/min
